From patent US7998950B2, “Antiviral compounds” (Gilead Sciences, Inc., priority 2008, dated 2011)
Where two headings read alike, the source gives them in different places.

Test system: HIV-IIIb
Test: Antiviral assay in MT-2 cells infected with HIV-IIIb
Format: cell-based
[1] = Human immunodeficiency virus 1, IIIB, MT2, 120 h, MT-2 cells infected with HIV-IIIb, m.o.i. 0.01, 10% FBS, 5 days at 37° C., CellTiter-Glo chemiluminescence, read-out: EC50 in MT-2 cells
[2] = Human immunodeficiency virus 1, IIIB, MT2, 120 h, read-out: EC50 in MT-2 cells (nM)
[3] = MT-2 cells infected with HIV-IIIb, m.o.i. 0.01, 10% FBS, 5 days at 37° C., CellTiter-Glo chemiluminescence, read-out: EC50 in MT-2 cells

Structure (SMILES) | EC50 [1] [nM] | other results
N#CCCNC(=O)c1c(O)c2ncc(Cc3ccc(F)cc3)c3c2n(c1=O)CC(F)(F)CN3 [A-9] | 4 | 
COCCNC(=O)c1c(O)c2ncc(Cc3ccc(F)cc3)c3c2n(c1=O)CC(F)(F)CN3 [A-10] | 4 | 
O=C(NCC1(O)CC1)c1c(O)c2ncc(Cc3ccc(F)cc3)c3c2n(c1=O)CC(F)(F)CN3 [A-11] | 3.5 | 
CCNC(=O)c1c(O)c2ncc(Cc3ccc(F)cc3)c3c2n(c1=O)CC(F)(F)CN3 [A-12] | 3 | 
C[C@@H](CO)NC(=O)c1c(O)c2ncc(Cc3ccc(F)cc3)c3c2n(c1=O)CC(F)(F)CN3 [A-13] | 6.5 | 
CC(C)(O)CNC(=O)c1c(O)c2ncc(Cc3ccc(F)cc3)c3c2n(c1=O)CC(F)(F)CN3 [A-14] | 7 | 
O=C(NCCCO)c1c(O)c2ncc(Cc3ccc(F)cc3)c3c2n(c1=O)CC(F)(F)CN3 [A-15] | 4 | 
N#CCCCNC(=O)c1c(O)c2ncc(Cc3ccc(F)cc3)c3c2n(c1=O)CC(F)(F)CN3 [A-17] | 2.5 | 
O=C(NC1CC(O)C1)c1c(O)c2ncc(Cc3ccc(F)cc3)c3c2n(c1=O)CC(F)(F)CN3 (centres unmarked) [A-18] | 7 | 
CNC(=O)c1c(O)c2ncc(Cc3ccc(F)cc3)c3c2n(c1=O)CC(CO)O3 (centres unmarked) [A-25] | 5.5 | 
O=C(NCCO)c1c(O)c2ncc(Cc3ccc(F)cc3)c3c2n(c1=O)CC(CO)O3 (centres unmarked) [A-26] | 16 | 
COCCNC(=O)c1c(O)c2ncc(Cc3ccc(F)cc3)c3c2n(c1=O)CC(CO)O3 (centres unmarked) [A-27] | 4 | 
O=C(NCCCN1CCCC1)c1c(O)c2ncc(Cc3ccc(F)cc3)c3c2n(c1=O)CC(CO)O3 (centres unmarked) [A-28] | 51 | 
COCC1Cn2c(=O)c(C(=O)NCCO)c(O)c3ncc(Cc4ccc(F)cc4)c(c32)O1 (centres unmarked) [A-31] | 1.5 | 
CNC(=O)c1c(O)c2ncc(Cc3ccc(F)cc3)c3c2n(c1=O)CC(C(=O)N(C)C)O3 (centres unmarked) [A-35] | 5.7 | 
CNC(=O)c1c(O)c2ncc(Cc3ccc(F)cc3)c3c2n(c1=O)C[C@H](C(=O)NC)O3 [A-50] | 6.8 | 
CNC(=O)c1c(O)c2ncc(Cc3ccc(F)cc3)c3c2n(c1=O)C[C@@H](C(=O)NC)O3 [A-65] | 6.3 | 
CNC(=O)c1c(O)c2ncc(Cc3ccc(F)cc3)c3c2n(c1=O)C[C@@H](CO)O3 [A-67] | 1.7 | 
CNC(=O)c1c(O)c2ncc(Cc3ccc(F)cc3)c3c2n(c1=O)C[C@H](CO)O3 [A-69] | 4 | 
CNC(=O)c1c(O)c2ncc(Cc3ccc(F)cc3)c3c2n(c1=O)C=C(C(=O)N(C)C)O3 [A-81] |  | EC50 [2]: 10.5 nM
CNC(=O)C1=Cn2c(=O)c(C(=O)NC)c(O)c3ncc(Cc4ccc(F)cc4)c(c32)O1 [A-82] | 8 | 
CNC(=O)c1c(O)c2ncc(Cc3ccc(F)cc3)c3c2n(c1=O)C=C(C(=O)N1CCOCC1)O3 [A-83] | 37 | 
CNC(=O)c1c(O)c2ncc(Cc3ccc(F)cc3)c3c2n(c1=O)C=C(C(=O)NC1CC1)O3 [A-85] | 4 | 
CNC(=O)C1=Cn2c(=O)c(C(=O)NCCOC)c(O)c3ncc(Cc4ccc(F)cc4)c(c32)O1 [A-87] | 3.6 | 

Structure (SMILES) | EC50 [1] [nM] | other results
CNC(=O)C1=Cn2c(=O)c(C(=O)NCCC#N)c(O)c3ncc(Cc4ccc(F)cc4)c(c32)O1 [A-88] | 18 | 
CNC(=O)C1=Cn2c(=O)c(C(=O)NCCO)c(O)c3ncc(Cc4ccc(F)cc4)c(c32)O1 [A-89] | 23 | 
CCNC(=O)C1=Cn2c(=O)c(C(=O)NC)c(O)c3ncc(Cc4ccc(F)cc4)c(c32)O1 [A-90] | 2.9 | 
CCN(CC)C(=O)C1=Cn2c(=O)c(C(=O)NC)c(O)c3ncc(Cc4ccc(F)cc4)c(c32)O1 [A-91] |  | EC50 [3]: 10 nM
CNC(=O)c1c(O)c2ncc(Cc3ccc(F)cc3)c3c2n(c1=O)C=C(C(=O)N1CC(F)(F)C1)O3 [A-92] | 21 | 
CNC(=O)c1c(O)c2ncc(Cc3ccc(F)cc3)c3c2n(c1=O)C=C(C(=O)NC(CO)CO)O3 [A-94] | 49 | 
CNC(=O)c1c(O)c2ncc(Cc3ccc(F)cc3)c3c2n(c1=O)CC(CO)(CO)O3 [A-109] |  | EC50 [3]: 7.1 nM
CCN(CC)C(=O)C1=Cn2c(=O)c(C(=O)NC)c(O)c3ncc(Cc4ccc(F)cc4)c(c32)O1 [Example 103] | 10 | 
CCNC(=O)C1=Cn2c(=O)c(C(=O)NCCOC)c(O)c3ncc(Cc4ccc(F)cc4)c(c32)O1 [Example 104] | 3 | 
CCN(CC)C(=O)C1=Cn2c(=O)c(C(=O)NCCOC)c(O)c3ncc(Cc4ccc(F)cc4)c(c32)O1 [Example 105] | 71 | 
COCCNC(=O)c1c(O)c2ncc(Cc3ccc(F)cc3)c3c2n(c1=O)C=C(C(=O)NCC1(O)CC1)O3 [Example 106] | 6 | 
CNC(=O)c1c(O)c2ncc(Cc3ccc(F)cc3)c3c2n(c1=O)C=C(C(=O)N1CCOCC1(C)C)O3 [Example 107] | 25 | 
COCCNC(=O)c1c(O)c2ncc(Cc3ccc(F)cc3)c3c2n(c1=O)C=C(C(=O)N1CCOCC1(C)C)O3 [Example 108] | 7.5 | 
COCCNC(=O)c1c(O)c2ncc(Cc3ccc(F)cc3)c3c2n(c1=O)C=C(C(=O)NCCN1CCCC1)O3 [Example 109] | 37.5 | 
COCCNC(=O)c1c(O)c2ncc(Cc3ccc(F)cc3)c3c2n(c1=O)C=C(C(=O)N1CCN(CC(F)(F)F)CC1)O3 [Example 110] | 27.4 | 
CCNC(=O)C1=Cn2c(=O)c(C(=O)NCCC#N)c(O)c3ncc(Cc4ccc(F)cc4)c(c32)O1 [Example 112] | 11.7 | 
CNC(=O)c1c(O)c2ncc(Cc3ccc(F)cc3)c3c2n(c1=O)C=C(C(=O)NCCOC)O3 [Example 113] | 5.3 | 
COCCNC(=O)C1=Cn2c(=O)c(C(=O)NCCOC)c(O)c3ncc(Cc4ccc(F)cc4)c(c32)O1 [Example 114] | 6.4 | 
CNC(=O)c1c(O)c2ncc(Cc3ccc(F)cc3)c3c2n(c1=O)C=C(C(=O)NCC(F)(F)F)O3 [Example 115] | 3.9 | 
[2H]C([2H])([2H])NC(=O)c1c(O)c2ncc(Cc3ccc(F)cc3)c3c2n(c1=O)C=C(C(=O)NCC)O3 [Example 116] | 2.5 | 
CNC(=O)c1c(O)c2ncc(Cc3ccc(F)cc3)c3c2n(c1=O)C=C(C(=O)NCC(C)(C)N1CCOCC1)O3 [Example 117] | 14 | 
CNC(=O)c1c(O)c2ncc(Cc3ccc(F)c(Cl)c3)c3c2n(c1=O)C=C(C(=O)NCC(C)(C)C#N)O3 [Example 118] | 0.7 | 
CNC(=O)c1c(O)c2ncc(Cc3ccc(F)cc3)c3c2n(c1=O)C=C(C(=O)NCC(C)(C)N(C)C)O3 [Example 119] | 2.4 | 
CNC(=O)c1c(O)c2ncc(Cc3ccc(F)cc3)c3c2n(c1=O)C=C(C(=O)NC(C)(C)CNC(=O)OC(C)(C)C)O3 [Example 120] | 19 | 

Structure (SMILES) | EC50 [1] [nM] | other results
CNC(=O)c1c(O)c2ncc(Cc3ccc(F)cc3)c3c2n(c1=O)C=C(C(=O)NC(C)(C)CN)O3 [Example 121] | 5.8 | 
CNC(=O)c1c(O)c2ncc(Cc3ccc(F)cc3)c3c2n(c1=O)C=C(C(=O)NCC(C)(C)NC(=O)c1nnc(C)o1)O3 [Example 122] | 64 | 
CNC(=O)c1c(O)c2ncc(Cc3ccc(F)cc3)c3c2n(c1=O)C=C(C(=O)NCC(C)(C)N)O3 [Example 123] | 35 | 
CCN(CC)C(=O)C1=Cn2c(=O)c(C(=O)NC)c(O)c3ncc(Cc4ccc(F)cc4)c(c32)O1 [Example 125] |  | EC50 (MT-2 cells infected with HIV-IIIb, m.o.i. 0.01, 10% FBS, 5 days at 37° C., CellTiter-Glo chemiluminescence, listed as A-177, read-out: EC50 in MT-2 cells): 5.5 nM
CNC(=O)c1c(O)c2ncc(Cc3ccc(F)cc3)c3c2n(c1=O)C=C(C(=O)NC(C)(C)CO)O3 [Example 126] | 3.3 | 
COCCNC(=O)c1c(O)c2ncc(Cc3ccc(F)cc3)c3c2n(c1=O)C=C(C(=O)NC(C)(C)CO)O3 [Example 127] | 5 | 
CC(C)(CO)NC(=O)C1=Cn2c(=O)c(C(=O)NC3CC3)c(O)c3ncc(Cc4ccc(F)cc4)c(c32)O1 [Example 128] | 7.1 | 
CNC(=O)c1c(O)c2ncc(Cc3ccc(F)cc3)c3c2n(c1=O)C=C(C1=NC(C)(C)CO1)O3 [Example 129] |  | EC50 [2]: 2.2 nM
CNC(=O)c1c(O)c2ncc(Cc3ccc(F)cc3)c3c2n(c1=O)C=C(c1nnc(C)o1)O3 [Example 130] |  | EC50 [2]: 4.6 nM
CNC(=O)c1c(O)c2ncc(Cc3ccc(F)cc3)c3c2n(c1=O)C=C(C(=O)N1CCCCC1)O3 [Example 131] | 13.9 | 
N#CCCNC(=O)c1c(O)c2ncc(Cc3ccc(F)cc3)c3c2n(c1=O)C=C(C(=O)N1CCCCC1)O3 [Example 132] | 37.4 | 
CNC(=O)c1c(O)c2ncc(Cc3ccc(F)cc3)c3c2n(c1=O)C=C(C(=O)NCC1(O)CC1)O3 [Example 133] | 7 | 
CNC(=O)c1c(O)c2ncc(Cc3ccc(F)cc3)c3c2n(c1=O)C=C(C(=O)NCC(C)(C)C#N)O3 [Example 134] | 2.5 | 
CC(C)(C#N)CNC(=O)C1=Cn2c(=O)c(C(=O)NC3CC3)c(O)c3ncc(Cc4ccc(F)cc4)c(c32)O1 [Example 135] | 2.7 | 
CNC(=O)c1c(O)c2ncc(Cc3ccc(F)cc3)c3c2n(c1=O)C=C(C(=O)NC(C)(C)C)O3 [Example 136] | 7.2 | 
CNC(=O)c1c(O)c2ncc(Cc3ccc(F)cc3)c3c2n(c1=O)C=C(COC)O3 [Example 137] |  | EC50 [2]: 5 nM
CNC(=O)c1c(O)c2ncc(Cc3ccc(F)cc3)c3c2n(c1=O)C=C(C(=O)NCC1(C#N)CC1)O3 [Example 138] | 1.5 | 
CC(C)(C)NC(=O)C1=Cn2c(=O)c(C(=O)NCCO)c(O)c3ncc(Cc4ccc(F)cc4)c(c32)O1 [Example 139] | 2.4 | 
CNC(=O)c1c(O)c2ncc(Cc3ccc(F)cc3)c3c2n(c1=O)C=C(C(=O)NCC(C)(C)O)O3 [Example 140] | 3.5 | 
CNC(=O)c1c(O)c2ncc(Cc3ccc(F)cc3)c3c2n(c1=O)C=C(C(=O)NCCOC(F)(F)F)O3 [Example 141] | 3.7 | 
CNC(=O)c1c(O)c2ncc(Cc3ccc(F)cc3)c3c2n(c1=O)C=C(C(=O)NCC1(O)CCCCC1)O3 [Example 142] | 1.9 | 
N#CCNC(=O)c1c(O)c2ncc(Cc3ccc(F)cc3)c3c2n(c1=O)CC(F)(F)CN3 [Example 143] | 4 | 
O=C(NCCN1CCNS1(=O)=O)c1c(O)c2ncc(Cc3ccc(F)cc3)c3c2n(c1=O)CC(F)(F)CN3 [Example 144] | 20 | 
